Results on five molecules are retold here after US20250122190A1, “HALOGEN-SUBSTITUTED PYRIDAZINONE COMPOUND AND APPLICATION THEREOF” (MEDSHINE DISCOVERY INC., priority 2021, published 2025).

Test [1] concerns TRPC5. Conditions: TRPC5 inhibition; cited from earlier work.
The test system of test [2] is TRPC5. Conditions: TRPC5 inhibition; cited from earlier work. This is another data set of the same source.
Test [3] concerns the target T1, hTRPC5-T478C (Homo sapiens, UniProt Q9UL62).
T1 sequence (Q9UL62 1-973): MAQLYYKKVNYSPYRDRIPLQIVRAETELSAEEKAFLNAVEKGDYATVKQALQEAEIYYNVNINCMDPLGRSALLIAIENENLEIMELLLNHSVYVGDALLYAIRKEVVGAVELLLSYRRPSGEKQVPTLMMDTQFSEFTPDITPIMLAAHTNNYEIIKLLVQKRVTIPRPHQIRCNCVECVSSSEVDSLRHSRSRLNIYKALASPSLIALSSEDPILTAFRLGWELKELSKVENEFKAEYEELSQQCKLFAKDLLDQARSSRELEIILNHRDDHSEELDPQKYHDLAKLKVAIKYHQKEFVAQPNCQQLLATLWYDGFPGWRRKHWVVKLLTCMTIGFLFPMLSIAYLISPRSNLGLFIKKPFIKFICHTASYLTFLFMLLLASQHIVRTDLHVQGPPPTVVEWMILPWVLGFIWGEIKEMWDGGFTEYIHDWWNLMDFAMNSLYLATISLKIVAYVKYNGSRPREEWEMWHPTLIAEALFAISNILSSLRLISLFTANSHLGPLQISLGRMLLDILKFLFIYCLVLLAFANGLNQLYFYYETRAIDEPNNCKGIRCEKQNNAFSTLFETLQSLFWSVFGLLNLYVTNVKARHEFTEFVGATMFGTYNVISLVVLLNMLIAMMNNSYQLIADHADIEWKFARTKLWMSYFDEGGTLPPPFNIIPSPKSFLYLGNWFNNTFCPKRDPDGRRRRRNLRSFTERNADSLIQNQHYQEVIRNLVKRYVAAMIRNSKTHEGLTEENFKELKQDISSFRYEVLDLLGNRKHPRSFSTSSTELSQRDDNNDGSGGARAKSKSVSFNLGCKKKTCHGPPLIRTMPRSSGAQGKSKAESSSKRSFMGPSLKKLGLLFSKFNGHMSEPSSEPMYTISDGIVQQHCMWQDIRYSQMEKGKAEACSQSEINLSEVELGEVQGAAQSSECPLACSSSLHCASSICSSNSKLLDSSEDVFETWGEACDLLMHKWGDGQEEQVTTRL
The test is described as follows: hTRPC5-T478C FLIPR calcium flux IC50 assay. Conditions: hTRPC5-T478C-HEK cells, Englerin A as channel agonist. The test is classed as cell-based. The method, then:
(§1) Cell culture: hTRPC5-T478C-HEK cells were cultured in a humid environment in 5% CO2 at 37° C.
(§2) Cell culture medium ingredients: • DMEM, Supplier: Gibco, Catalog No. 11965-092; • FBS, Supplier: Gibco, Catalog No. 10099-141C, Concentration: 10%; • Pen/Strep, Supplier: Invitrogen, Catalog No. 15140-122, Concentration: 1%; • Zeocin, Supplier: Invitrogen, Catalog No. R25005, Concentration: 200 μg/mL; • Blasticidin S, Supplier: Invitrogen, Catalog No. R21001, Concentration: 5 μg/mL.
(§3) In general, the TRPC5-T478C cell line was passaged three times weekly. The dilution factor for each passage was 1:3. Once the cells reached about 80% confluence in the T-75 flask, the cell line was digested with trypsin for about 1 minute and the cell suspension was removed from the flask with a pipette. Depending on the dilution ratio, the removed cell suspension would be transferred to another T-75 flask containing cell culture medium. Note that in order to maintain the logarithmic growth of the cells, the confluence of the cells should be maintained at the subconfluent stage and the cells should be passaged once every 2 to 3 days depending on the proliferation rate of the cell line.
(1) Preparation of cell plate: the cells were separated according to the above-mentioned passaging and the cell density and viability were determined using a cell counter. The volume of the cell suspension was adjusted with a cell culture medium. After the density reached to the plating density, 1 μg/mL tetracycline was added to induce hTRPC5-T478C channel expression. The induced hTRPC5-T478C cells were then seeded onto poly-D-lysine (PDL)-coated 384-well plates at a density of 20000 cells/well (30 μL/well). Then the cells were cultured overnight in a cell culture incubator.
(2) Preparation of compound plate: the compounds were generally diluted with DMSO, prepared into a mother liquor and stored in a −20° C. refrigerator. A compound plating program was set on the ECHO processor, and the compounds were plated with ECHO according to the concentration gradient that was already set. In general, 9 concentrations were included with the highest concentration at 10 μM, 3-fold dilution, and 2 replicate wells. Englerin A was used as the channel agonist.
(3) On-machine testing: the cell plates and compound plates were prepared according to the above-mentioned methods. After the cell confluence of the cell plate reached 80%-90%, the cells were removed from the incubator and the testing started. Ca5 dye (Molecular Devices #R8185) was formulated with test buffer. After the cell plate culture medium was removed with Bravo, 25 μL of Ca5 dye was added to each well, and the plate was incubated for 1 hour. After 1 hour, the cell plate and compound plate were placed in FLIPR^TETRA (Molecular Devices, USA) for FLIPR detection.
Data analysis was performed using Excel 2013 (Microsoft, USA) software and GraphPad Prism 6.01 software. The maximum signal was generated by FLIPR software. Data analysis was performed using Excel (2013) and Prism 6.01. Data quality and data stability were controlled using S/B>2.50 and Z factor>0.50. The calculation formula was as follows: S/B=Avg100%/Avg0%; Z factor=1−(3*SD100%+3*SDO %)/|Avg100%-Avg0%.
(In general: Calcium flux is commonly read through the fluorescence of an indicator in the cells.)

The target in test [4] is T1, hTRPC5-T478C. The test is described as follows: hTRPC5-T478C patch clamp IC50 assay. Type of test: cell-based. Conditions: hTRPC5-T478C-HEK cells, whole-cell patch clamp, Englerin A agonist. The method, then: as §1, §2, §3
(1) Extracellular fluid: sodium chloride (145 mmol/L), potassium chloride (4 mmol/L), magnesium chloride (1.5 mmol/L), glucose (10 mmol/L), hydroxyethyl piperazineethanesulfonic acid (HEPES, 10 mmol/L). The extracellular fluid was adjusted to pH 7.4 with NaOH, and the osmotic pressure was adjusted to about 305 mOsm/L with pure water or sucrose.
(2) Intracellular fluid: cesium chloride (140 mmol/L), ethylene glycol diethyl ether diamine tetraacetic acid (EGTA, 1 mmol/L), magnesium chloride (2 mmol/L), glucose (10 mmol/L), hydroxyethyl piperazineethanesulfonic acid (HEPES, 10 mmol/L). The intracellular fluid was adjusted to pH 7.2 with […], and the osmotic pressure was adjusted to about 295 mOsm/L with pure water or sucrose.
(3) The extracellular fluid was required to be formulated once a week, and the intracellular fluid was required to be subpackaged and stored at −20° C. after formulation.
Positive reference compounds Englerin A and 2-aminoethoxydiphenyl borate (2-APB) were dissolved in 100% DMSO and stored as a 10 mM working solution after formulation. The test compounds were dissolved in 100% DMSO and stored as a 10 mM working solution after formulation. The final concentration of DMSO in the test solution should be less than 0.3%.
Whole-cell patch clamping was performed at room temperature. The electrical signals recorded using an EPC 10 USB amplifier (HEKA Elektronik, Germany) were low-pass filtered at 3 kHz and finally recorded in PatchMaster 2×90.5 software (HEKA Elektronik, Germany). In this step, the quality control standards were that the cell high-resistance seal was formed at a value greater than 500 MOhms and the detection current was greater than 0.3 nA.
The recording electrode was a borosilicate glass capillary (GC150tF-10, Harvard Apparatus Co., UK), which was pulled by a vertical puller (NARISHIGE PC-10, Japan) and polished. In this step, the quality control standard was that the electrode resistance was between 2 to 5 MΩ.
During whole-cell patch clamp recordings, a continuous filling system (BT100-2J, LongerPump, China) was used to continuously perfuse extracellular fluid. The filling system was mounted on the stage of an upright microscope (FN—S2N, Nikon, Japan), and the filling tip was manually positioned under the microscope.
The voltage instructions for hTRPC5-T478C current amplitude detection were as follows: the cells were clamped as follows: the clamping potential changed in a stepped manner from −40 mV to −80 mV (duration: 50 ms); then the clamping voltage ramped up to +80 mV, and the whole process lasted for 200 ms; then clamping was performed at +80 mV for 50 ms, and finally, the voltage returned to the clamping potential of −40 mV. […]
(Patch clamp records ionic current or voltage across a cell membrane.)

With `c1ccc(Cn2c(NCc3ccco3)nc3ccccc32)cc1` [AC1903], in test [1], the podocyte cytoskeletal remodeling entry is recorded as “protects” and the “protamine sulfate-induced podocyte injury” value is listed as “inhibits”. For the same molecule, the LPS-induced proteinuria entry in test [2] is listed as “significantly reduces”.

By IC50 is commonly meant the midpoint of a concentration-inhibition curve. In the case of `C=C(c1ccc(F)cc1C(F)(F)F)c1ncnc2c1CCN(c1cn[nH]c(=O)c1Cl)C2` [Compound WX003], the figures for the concentration for half-maximal inhibition (IC50) in test [3] and in test [4] were 70 nM and 89.4 nM, respectively.

As to `CC(O)c1nc2c(c(Sc3ccc(F)cc3C(F)(F)F)n1)CCN(c1cn[nH]c(=O)c1Cl)C2` (stereo not shown) [Compound WX014], the IC50 in test [3] was 12 nM.

For the molecule `O=c1[nH]ncc(N2CCc3c(ncnc3Sc3ccc(F)cc3Cl)C2)c1Cl` [Compound WX017], the IC50 in test [3] amounted to 56 nM.

Consider `Cc1cc(N2CCCCC2)nc2ccccc12` [ML204], for which, in test [1], the podocyte cytoskeletal remodeling result was “protects” and the “protamine sulfate-induced podocyte injury” value is listed as “inhibits”. The LPS-induced proteinuria result in test [2] is recorded as “significantly reduces”.
